Measurements as given in US20110086429A1, “METHODS AND DEVICES FOR DETECTING OZONE AND CARBONYL-CONTAINING COMPOUNDS” (SIGMA-ALDRICH CO., priority 2007, published 2011).
In brackets after ≈: the same amount, converted by molar mass.

Test: Solubility in acetonitrile, DMSO and their mixtures
Type: physicochemical

O=[N+]([O-])c1ccc(NN=Cc2ccncc2)c([N+](=O)[O-])c1 [pyridine-4-aldehyde 2,4-DNPhydrazone, pyridine-4-aldehyde 2,4-dinitrophenylhydrazone]
solubility in DMSO (in words) (DMSO): relatively high concentration | solubility in acetonitrile (in words) (acetonitrile): poor solubility

O=Cc1ccncc1 [pyridine-4-aldehyde]
solubility (organic solvent or mixture, acetonitrile, FIG. 3 at 25° C.): ~790 µM (≈ 84.6 µg/mL)
